Usually AUC(0-t) stands for exposure summed from dosing to a finite time, without extrapolation to infinity. Higher therefore signals more exposure. What is called MRT inf is a mean duration of stay, worked out from the concentration-time curve. As a reminder, the clearance is a measure of how efficiently the substance is removed, as volume per time. Low readings indicate inefficient removal, high ones efficient removal. By half-life is commonly meant the time needed for the level to fall by half in the phase considered. A lower half-life goes with fast loss. A word on the Cmax: it is the highest concentration seen after dosing. As usually defined, the Tmax is the time from dosing to the highest level. For orientation: DC50 means the midpoint of the concentration-degradation curve. Broadly, the Kd is the constant that tells how readily two partners part at equilibrium.

Several values for one entry are separate records, joined by “and”; a condition that tells them apart may be missing. Equal entries are not always repeated. Where two headings read alike, the source gives them in different places.

Series [1] concerns BromoTag-Brd2. The experiment in a line: Competition assay (inhibitor pretreatment, western blot). Particulars: 200 nM 46 for 3 h after 1 h pretreatment. It is filed as cell-based, human. As for the experimental part:
Heterozygous BromoTag-Brd2 HEK293 cells were plated in six-well plates at a density of 5 × 10^5 cells per well in 2 mL DMEM. […] After 3 h, the cells were harvested for subsequent processing via western blot. Each treatment was performed in tandem to produce two technical repeats per condition. The six-well plates were incubated for 4 h at 37 °C and 5% CO2 throughout the experiment.
(§1) All cells were harvested on ice with RIPA lysis and extraction buffer (Thermo Fisher Scientific, 89901) supplemented with protease inhibitor cocktail (Merck, 11697498001) and Benzonase Nuclease (Sigma, E1014) before being stored at −20 °C prior to use. Total protein quantity was determined using the BCA protein assay (#23225, Pierce, Rockford, Illinois). The protein concentration was determined using the BCA assay (Thermo Fisher Scientific, 23225). The samples were then prepared and loaded onto NuPAGE 4–12% bis–tris Midi gels (Thermo Fisher Scientific, WG1403A), followed by the transfer of proteins onto nitrocellulose membranes (EMD Millipore). The membranes were blocked for 1 h prior to incubation with the primary antibodies using 5% Milk TBST. […] All western blots were analyzed for band intensities using Image Lab from Bio-Rad (LI-COR, Biosciences). The data extracted from these blots were then plotted and analyzed using Prism (v. 8.2.0, GraphPad).

Series [2] is described as follows: In vivo PK profiling. The settings on record: male, C57BL/6, mouse, plasma, mice. As for the experimental part:
PK profiling was outsourced and undertaken by Shanghai ChemPartner Co., Ltd. All animal experiments performed were conducted in compliance with the Institutional Animal Care and Use Committee (IACUC) and the Office of Laboratory Animal Welfare (OLAW) guidelines. Six- to eight-week-old C57BL/6 male mice purchased from Jihui Laboratory Animal Co. LTD were used in the study. […] The animals were restrained manually at the designated time points (0.083, 0.25, 0.5, 1, 2, 4, and 8 h); approximately, 110 μL of blood sample was collected via facial vein into K2EDTA tubes. Three mice per time point were used, resulting in a […]. The blood sample was put on ice and centrifuged at 2000g for 5 min to obtain the plasma sample within 15 min. The plasma samples were stored at approximately −70 °C until analysis. A 30 μL aliquot of plasma was added with 200 μL of internal standard (diclofenac, 40 ng/mL) in 1% formic acid in MeCN. The mixture was then vortexed for 1 min and then centrifuged for 10 min at 5800 rpm. The supernatant (100 μL) was transferred to a new plate. The solvent (0.5 μL) was injected to LC–MS/MS. LC–MS/MS instrument used: SCIEX LC–MS/MS-45 (Triple Quad 6500+). Data was analyzed by WinNonLin and Microsoft Excel.

Series [3] relates to BromoTag-Brd2. Nature of the series: Dose–response degradation assay (western blot, 6 h) in heterozygous BromoTag-Brd2 HEK293 cells. The settings on record: 6 h; for DC50: read-out: DC50 of BromoTag-Brd2 degradation (DC50, 6h), single stereoisomers. The class given is cell-based, human. (Immunoblotting shows a protein as a band on a membrane.)
The target of series [4] is T1, VHL (VCB protein) (Homo sapiens, UniProt P40337).
T1 construct: N-terminally His6-tagged VHL (54–213); His6 (N, cleaved yes); made in house; host or cells: E. coli
Nature of the series: FP competitive binding assay, binary binding. Particulars: compound alone; mean ±S.E.M., N = 4; read-out: binary affinity to VHL Kd.

In series [5] the test system is BromoTag-Brd2. The experiment in a line: Time course degradation assay (western blot, 0–36 h) in heterozygous BromoTag-Brd2 HEK293 cells. Particulars: 500 nM. The class given is cell-based, human. Here is the method:
Heterozygous BromoTag-Brd2 HEK293 cells were plated at a density of 5 × 10^5 cells per well of a six-well healthy plate a day prior to initiating the time course assay. […] The time point range was between 0 and 36 h. Treatment was applied in a staggered fashion to enable all time points to be harvested at the same time.
as §1

The subject of series [6] is MV-4-11 cells. Nature of the series: CellTiter-Glo 2.0 cell viability assay, MV-4-11. It is filed as cell-based, human. The settings on record: MV-4-11, up to 1–10 μM.
Series [7] concerns BromoTag-Brd2. Nature of the series: Recovery (washout) assay. The class given is cell-based, human. Here is the method:
This was performed in the genotype-verified heterozygous BromoTag-Brd2 HEK293 cell line. Heterozygous BromoTag-Brd2 HEK293 cells were plated at a density of 5 × 10^5 cells per well of a six-well plate a day before initiating the recovery assay. […] During treatment, the cells were kept at 37 °C, 5% CO2, and 95% humidity.
as §1

In series [8] the test system is 22RV1 cells. Nature of the series: CellTiter-Glo 2.0 cell viability assay, 22RV1. It is filed as cell-based, human. Particulars: 22RV1, up to 1–10 μM. A general note: In ATP-based viability assays light output follows the ATP content of the culture.
Series [9] concerns HEK293 cells. The experiment in a line: CellTiter-Glo 2.0 cell viability assay, HEK293. The class given is cell-based, human. Particulars: HEK293, up to 1–10 μM.
[10] abbreviates: eight-point 10 μM to 1 nM, mean ±S.E. of two repeats.

In the case of `CC[C@@H](C(=O)OCCOCCOCCOCC(=O)N[C@H](C(=O)N1C[C@H](O)C[C@H]1C(=O)NCc1ccc(-c2scnc2C)cc1)C(C)(C)C)[C@@H]1N=C(c2ccc(Cl)cc2)c2c(sc(C)c2C)-n2c(C)nnc21` [AGB1 (46), (S)-13-((2S,4R)-4-Hydroxy-2-((4-(4-methylthiazol-5-yl)benzyl)carbamoyl)pyrrolidine-1-carbonyl)-14,14-dimethyl-11-oxo-3,6,9-trioxa-12-azapentadecyl (R)-2-((S)-4-(4-chlorophenyl)-2,3,9-trimethyl-6H-thieno[3,2-f][1,2,4]triazolo[4,3-a][1,4]diazepin-6-yl)butanoate], the “on-target degradation activity upon pretreatment with MLN4924 or VH298” value in series [1] (3 μM MLN4924, 10 μM VH298) is reported as “completely abrogated”. The “on-target degradation activity upon pretreatment with MG132” value in [1] (50 μM MG132) is “blocked”. In [2] (IV (5 mg/kg)), this compound had an AUC(0-t) at 8 h of 1.71 µM·h, an MRT inf of 23.4 min, a clearance at 8 h of 47.2 mL/min/kg and a half-life at 8 h of 89.4 min. For the same compound, in series [2] (IV (5 mg/kg), read-out: AUCinf), the AUC(0-inf) at 8 h was found to be 1.72 µM·h. Moreover, the Vd at 8 h in [2] (IV (5 mg/kg), read-out: Vss) came out at 1.1 L/kg. In series [2] (SC (5 mg/kg)), the AUC(0-t) at 8 h came out at 2.33 µM·h, the concentration peaked (Cmax at 8 h) at 700 nM, the Tmax at 8 h was 30 min and the half-life at 8 h was 99 min. Moreover, in series [2] (SC (5 mg/kg), read-out: AUCinf (μ; M·h)), the AUC(0-inf) at 8 h was 2.4 µM·h. Also, in series [3] (setting [10]), the “pDC50 (Ab: Brd^4BD2 L387A)” value worked out at 7.8 ± 0.2 and the “pDC50 (Ab: BromoTag-Brd2)” value is recorded as 7.9 ± 0.1. In addition, the DC50 in [3] lay within 12.6 to 14.5 nM. Moreover, in series [3] (listed as 46), the DC50 was 13 to 15 nM and ~13 nM. The Kd in [4] turned out to be 125 nM. Moreover, the “time to completely degrade BromoTag-Brd2” value in series [5] is on record as at most 6 h. In addition, the cytotoxicity entry in series [6] is recorded as “lack of cytotoxicity”. The “time after washout at which BromoTag-Brd2 protein levels recover” value in series [7] (200 nM for 3 h, then washout) is reported as 24 h. Further, in series [7] (200 nM, no washout), the “on-target degradation without washout” value is “complete and durable on-target degradation for up to 72 h”. The cytotoxicity entry in series [8] was “lack of cytotoxicity”. In addition, in [9], the cytotoxicity entry is on record as “lack of cytotoxicity”.

Values taken from article PMC8558867, “Development of BromoTag: A “Bump-and-Hole”–PROTAC System to Induce Potent, Rapid, and Selective Degradation of Tagged Target Proteins” (Journal of Medicinal Chemistry, 2021).
